Assay: mn = molality of the nth substance listed, in mol/kg
Conditions: 101 kPa, Liquid, Alternating current cell with electrodes

CC[N+](CC)(CC)CC.F[B-](F)(F)F [tetraethylammonium tetrafluoroborate] + CC1COC(=O)O1
electrical conductivity [S/m]
Conditions	m1 = 0.1593	m1 = 0.461	m1 = 0.5658	m1 = 0.7282	m1 = 0.8234	m1 = 0.9666	m1 = 1.186	m1 = 1.425
253.15 K	0.1317	0.278	0.3133	0.3523	0.366	0.3749	0.359	–
273.15 K	0.239	0.519	0.591	0.676	0.712	0.745	0.75	0.689
293.15 K	0.364	0.812	0.929	1.07	1.128	1.19	1.201	1.116
313.15 K	0.516	1.16	1.333	1.543	1.635	1.73	1.77	1.69
333.15 K	0.678	1.535	1.76	2.049	2.18	2.314	2.4	2.307
